Data taken from BindingDB's records for doi:10.1021/acs.jmedchem.6b01088 (Bristol Myers Squibb, 2016).

Assay: Inhibition of LCK in human peripheral T cells assessed as suppression of TCR-dependant cell proliferation

IC50: 3.8 µM
SMILES: Cc1c(-c2c(F)cc(C(N)=O)c3[nH]c4c(c23)CC[C@H](C(C)(C)O)C4)cccc1-n1c(=O)c2cccc(F)c2n(C)c1=O
